Patent US8735414B2 (priority 2009, dated 2014)

Experiments:
[1] = test system: bicistronic HCV replicon (replicon RNA, GenBank Accession No. AJ242654); assay: HCV Replicon Assay; format: cell-based; conditions: Hepatitis C virus, 72 h, read-out: Replicon IC50

| Structure (SMILES) | IC50 [1] [nM] | melting point [°C] |
| --- | --- | --- |
| Cc1cc2c(cc1Cl)c(C(N)=O)c(-c1ncc(S(=O)(=O)N[C@@H](C)C(F)(F)F)cn1)n2C1CCC1 [compound 733, 5-chloro-1-cyclobutyl-6-methyl-2-(5-{[(2S)-1,1,1-trifluoropropan-2-yl]sulfamoyl}pyrimidin-2-yl)-1H-indole-3-carboxamide] | < 500 | 171 to 173 |
| COc1ccc2c(C#N)c(-c3ccc(S(=O)(=O)N[C@@H](C)C4CC4)cn3)n(C3CCC3)c2c1 [compound 429, 6-(3-cyano-1-cyclobutyl-6-methoxy-1H-indol-2-yl)-N-[(1S)-1-cyclopropylethyl]pyridine-3-sulfonamide] | < 500 | 193 to 199 |
| Cc1cc2c(cc1F)c(C#N)c(-c1ccc(S(=O)(=O)N[C@@H](C)C(F)(F)F)cn1)n2-c1ccsc1Cl [compound 1057, 6-[1-(2-chlorothiophen-3-yl)-3-cyano-5-fluoro-6-methyl-1H-indol-2-yl]-N-[(2S)-1,1,1-trifluoropropan-2-yl]pyridine-3-sulfonamide] | < 500 | 226.7 to 231.8 |
| COc1ccc2c(C#N)c(-c3ccc(S(=O)(=O)N[C@@H](C)C(F)(F)F)cn3)n(C3CCCC3)c2c1 [compound 430, 6-(3-cyano-1-cyclopentyl-6-methoxy-1H-indol-2-yl)-N-[(2S)-1,1,1-trifluoropropan-2-yl]pyridine-3-sulfonamide] | < 500 | 209 to 216 |
| C[C@H](NS(=O)(=O)c1cnc(-c2c(C#N)c3cc(F)ccc3n2CC2CC2)nc1)C(F)(F)F [compound 548, 2-[3-cyano-1-(cyclopropylmethyl)-5-fluoro-1H-indol-2-yl]-N-[(2S)-1,1,1-trifluoropropan-2-yl]pyrimidine-5-sulfonamide] | 500 to 2000 | 175 to 180 |
| N#Cc1c(-c2ncc(S(=O)(=O)NC(CF)CF)cn2)n(C2CCCC2)c2cc(F)ccc12 [compound 166, 2-(3-cyano-1-cyclopentyl-6-fluoro-1H-indol-2-yl)-N-(1,3-difluoropropan-2-yl)pyrimidine-5-sulfonamide] | < 500 | 167 to 169 |
| Cc1cc2c(cc1F)c(C#N)c(-c1ccc(S(=O)(=O)N[C@@H](C)C(F)(F)F)cn1)n2C1CCCCC1 [compound 678, 6-(3-cyano-1-cyclohexyl-5-fluoro-6-methyl-1H-indol-2-yl)-N-[(2S)-1,1,1-trifluoropropan-2-yl]pyridine-3-sulfonamide] | < 500 | 224 to 229 |
| Cc1cc2c(cc1F)c(C#N)c(-c1ccc(S(=O)(=O)N[C@@H](C)C(F)(F)F)cn1)n2-c1ccc(F)nc1 [compound 1015, 6-[3-cyano-5-fluoro-1-(6-fluoropyridin-3-yl)-6-methyl-1H-indol-2-yl]-N-[(2S)-1,1,1-trifluoropropan-2-yl]pyridine-3-sulfonamide] | < 500 | 246.8 to 252.7 |
| Cc1c(F)cc2c(C#N)c(-c3ccc(S(=O)(=O)N[C@@H](C)C(F)(F)F)cn3)n(C3CCCC3)c2c1F [compound 508, 6-(3-cyano-1-cyclopentyl-5,7-difluoro-6-methyl-1H-indol-2-yl)-N-[(2S)-1,1,1-trifluoropropan-2-yl]pyridine-3-sulfonamide] | < 500 | 215 to 219 |
| CC(C)n1c(-c2ccc(NS(=O)(=O)C(C)(C)C)nc2)c(C#N)c2ccc(OC(F)F)cc21 [compound 299, N-{5-[3-cyano-6-(difluoromethoxy)-1-(propan-2-yl)-1H-indol-2-yl]pyridin-2-yl}-2-methylpropane-2-sulfonamide] | 2000 to 5000 | 263 to 264 |
| N#Cc1c(-c2ncc(S(=O)(=O)NC(CF)CF)cn2)n(CC2CC2)c2cc(CC(F)F)ccc12 [compound 621, 2-[3-cyano-1-(cyclopropylmethyl)-6-(2,2-difluoroethyl)-1H-indol-2-yl]-N-(1,3-difluoropropan-2-yl)pyrimidine-5-sulfonamide] | < 500 | 180 to 188 |
| CC(C)NS(=O)(=O)c1cnc(-c2c(C#N)c3ccc(F)cc3n2CC2CC2)nc1 [compound 139, 2-[3-cyano-1-(cyclopropylmethyl)-6-fluoro-1H-indol-2-yl]-N-(propan-2-yl)pyrimidine-5-sulfonamide] | 500 to 2000 | 218 to 219 |
| Cc1ccc2c(C#N)c(-c3ccc(S(=O)(=O)NC4CC(F)(F)C4)cn3)n(C3CCC3)c2c1 [compound 245, 6-(3-cyano-1-cyclobutyl-6-methyl-1H-indol-2-yl)-N-(3,3-difluorocyclobutyl)pyridine-3-sulfonamide] | < 500 | 165 to 166 |
| C[C@H](NS(=O)(=O)c1ccc(-c2c(C#N)c3ccc(OC(F)F)cc3n2C2CCCCC2)nc1)C(F)(F)F [compound 341, 6-[3-cyano-1-cyclohexyl-6-(difluoromethoxy)-1H-indol-2-yl]-N-[(2S)-1,1,1-trifluoropropan-2-yl]pyridine-3-sulfonamide] | < 500 | 149 to 151 |
| CCc1cc2c(cc1F)c(C#N)c(-c1ccc(S(=O)(=O)N[C@@H](C)C(F)(F)F)cn1)n2-c1ccncn1 [compound 964, 6-[3-cyano-6-ethyl-5-fluoro-1-(pyrimidin-4-yl)-1H-indol-2-yl]-N-[(2S)-1,1,1-trifluoropropan-2-yl]pyridine-3-sulfonamide] | < 500 | 202 to 206 |
| Cc1cccc(-n2c(-c3ccc(S(=O)(=O)N[C@@H](C)C(F)(F)F)cn3)c(C#N)c3cc(F)c(C)cc32)n1 [compound 923, 6-[3-cyano-5-fluoro-6-methyl-1-(6-methylpyridin-2-yl)-1H-indol-2-yl]-N-[(2S)-1,1,1-trifluoropropan-2-yl]pyridine-3-sulfonamide] | < 500 | 219 to 225 |
| CCc1cc2c(cc1F)c(C#N)c(-c1ccc(S(=O)(=O)N[C@@H](C)C(F)(F)F)cn1)n2-c1ncccc1Cl [compound 965, 6-[1-(3-chloropyridin-2-yl)-3-cyano-6-ethyl-5-fluoro-1H-indol-2-yl]-N-[(2S)-1,1,1-trifluoropropan-2-yl]pyridine-3-sulfonamide] | < 500 | 200 to 208 |
| Cc1ccc2c(C#N)c(-c3ccc(S(=O)(=O)N[C@@H](C)C4CC4)cn3)n(C3CCC3)c2c1 [compound 238, 6-(3-cyano-1-cyclobutyl-6-methyl-1H-indol-2-yl)-N-[(1S)-1-cyclopropylethyl]pyridine-3-sulfonamide] | < 500 | 181 to 187 |
| CCCn1c(-c2ccc(S(=O)(=O)N[C@H](C)C(F)(F)F)cn2)c(C#N)c2ccc(F)cc21 [compound 217, 6-(3-cyano-6-fluoro-1-propyl-1H-indol-2-yl)-N-[(2R)-1,1,1-trifluoropropan-2-yl]pyridine-3-sulfonamide] | 2000 to 5000 | 195 to 197 |
| Cc1cc2c(cc1Cl)c(C#N)c(-c1ccc(S(=O)(=O)N[C@@H](C)C(F)(F)F)cn1)n2-c1ncccn1 [compound 785, 6-[5-chloro-3-cyano-6-methyl-1-(pyrimidin-2-yl)-1H-indol-2-yl]-N-[(2S)-1,1,1-trifluoropropan-2-yl]pyridine-3-sulfonamide] | < 500 | 210 to 212 |
| C[C@H](NS(=O)(=O)c1ccc(-c2cc3cc(F)c(O)cc3n2C2CCC2)nc1)C(F)(F)F [compound 728, 6-(1-cyclobutyl-5-fluoro-6-hydroxy-1H-indol-2-yl)-N-[(2S)-1,1,1-trifluoropropan-2-yl]pyridine-3-sulfonamide] | 2000 to 5000 | 193 to 195 |
| Cc1ccc2c(C#N)c(-c3ncc(S(=O)(=O)N[C@H](C)C(F)(F)F)cn3)n(C3CCCC3)c2c1 [compound 182, 2-(3-cyano-1-cyclopentyl-6-methyl-1H-indol-2-yl)-N-[(2R)-1,1,1-trifluoropropan-2-yl]pyrimidine-5-sulfonamide] | < 500 | 116 to 118 |
| CCc1cc(F)c2c(C(N)=O)c(-c3ccc(NS(=O)(=O)C(C)(C)C)nc3)n(-c3ccc(F)cc3)c2c1 [compound 1106, 2-{6-[(tert-butylsulfonyl)amino]pyridin-3-yl}-6-ethyl-4-fluoro-1-(4-fluorophenyl)-1H-indole-3-carboxamide] | < 500 | 280 to 288 |
| N#Cc1c(-c2ncc(S(=O)(=O)NC(CF)CF)cn2)n(C2CCCC2)c2ccc(F)cc12 [compound 240, 2-(3-cyano-1-cyclopentyl-5-fluoro-1H-indol-2-yl)-N-(1,3-difluoropropan-2-yl)pyrimidine-5-sulfonamide] | < 500 | 201 to 206 |
| C[C@H](NS(=O)(=O)c1ccc(-c2c(C#N)c3ccc(OC(F)(F)F)cc3n2C2CCC2)nc1)C(F)(F)F [compound 370, 6-[3-cyano-1-cyclobutyl-6-(trifluoromethoxy)-1H-indol-2-yl]-N-[(2S)-1,1,1-trifluoropropan-2-yl]pyridine-3-sulfonamide] | < 500 | 165 to 175 |
| Cc1cc2c(cc1F)c(C#N)c(-c1ccc(S(=O)(=O)NC(C)(C)C(F)(F)F)cn1)n2C1CCCC1 [compound 681, 6-(3-cyano-1-cyclopentyl-5-fluoro-6-methyl-1H-indol-2-yl)-N-(1,1,1-trifluoro-2-methylpropan-2-yl)pyridine-3-sulfonamide] | < 500 | 223 to 225 |
| Cc1ccc2c(C#N)c(-c3ccc(S(=O)(=O)N[C@H](C)C(F)(F)F)cn3)n(C3CCC3)c2c1 [compound 192, 6-(3-cyano-1-cyclobutyl-6-methyl-1H-indol-2-yl)-N-[(2R)-1,1,1-trifluoropropan-2-yl]pyridine-3-sulfonamide] | < 500 | 204 to 208 |
| C[C@@H](NS(=O)(=O)c1ccc(-c2c(C#N)c3ccc(F)cc3n2CC2CC2)nc1)C(F)(F)F [compound 216, 6-[3-cyano-1-(cyclopropylmethyl)-6-fluoro-1H-indol-2-yl]-N-[(2R)-1,1,1-trifluoropropan-2-yl]pyridine-3-sulfonamide] | 500 to 2000 | 173 to 175 |
